The values that follow are results of earlier work, collected in publication PMC11050823, “The Cyclic Imine Core Common to the Marine Macrocyclic Toxins Is Sufficient to Dictate Nicotinic Acetylcholine Receptor Antagonism” (Marine Drugs, 2024).

The target of this data set is nicotinic acetylcholine receptors. Details: method as in PMID 35049904. The conditions noted are these: cited from earlier work.

SMILES strings stand for the structures.

For the compound `CN(C)C1CSSC1` [nereistoxin, N,N-dimethyl-1,2-dithiolan-4-amine], the “IC50 values as nicotinic antagonist” value was “sub-millimolar”.
